Experiments:
[1] = system: HCV GT1a replicon; assay: HCV replicon assay (Huh-7 cells stably transfected with HCV GT1a replicon; luciferase or NEO gene qPCR readout); type: cell-based; settings: Hepatitis C virus, HCV 1a genotype replicon, 72 hours
Method: (§1) HCV Replicon System was utilized as a screening model in the present disclosure to evaluate the antivirus effects of the compounds disclosed herein against HCV. HCV Replicon assay was first described in Science, 1999, 285 (5424), 110-3. […] To determine the potential anti-HCV effects of the test compounds, luciferase assay and antibiotic Neomycin resistance gene were tested according to the method described in Science. 1999 Jul. 2; 285 (5424), 110-3 and J. Virol. 2003 March; 77 (5), 3007-19.
(§2) In a word, the compounds disclosed herein were tested by using human hepatic carcinoma cell line Huh-7 which is transfected stably with HCV GT1a, GT1b or GT2a replicon respectively, and resistant cells of Y93H, L31F, P32L or I302V and wild-type cells HCV 1b. HCV Replicon System disclosed herein contains G418 resistance gene NEO and Luciferase Reporter Gene, and the level of HCV replication in host cells is detected and characterized by the expression level of the NEO gene or Luciferase Reporter Gene, so the effects of the compounds herein inhibit HCV replication can be evaluated in this system. In this article, a real-time quantitative polymerase chain reaction (qPCR) method was used to detect NEO gene expression level, and chemiluminescence method was used to test Luciferase Reporter Gene expression level.
(§3) 1. Test Method for Measuring EC50 of the Compounds Based on Luciferase Assay.
(§4) The Huh-7 cells transfected with HCV replicons system were seeded into 96-well plates (8,000 cells in 125 μL/well) respectively; each test compound was diluted to desired concentration using 5-fold serial dilutions protocol, 10 doses in duplicate, and added to wells with POD™ 810 Plate Assembler. The plates were incubated in a CO2 incubator for 72 hours; after that, 40 μL of Luciferase assay substrate (Promega Bright-Glo) was added to each well, and detected by a chemiluminescence detection system (Topcount Microplate Scintillation and Luminescence Counter) 5 minutes later; the EC50 (half-maximal effective concentration, concentration for 50% of maximal effect) values of test compounds were analyzed by GraphPad Prism software. In this paper, experiments were repeated twice and set the wells without compounds as negative control.
(§5) 2. Test Method for Measuring EC50 of the Compounds by Detecting Antibiotic G418 Resistance Gene NEO Gene.
(§6) The Huh-7 cells transfected with HCV replicons system were seeded into 96-well plates (8,000 cells in 125 μL/well) respectively; each test compound was diluted to desired concentration using 5-fold serial dilutions protocol, 10 doses in duplicate, and added to each well with POD™ 810 Plate Assembler; the cells were incubated in a CO2 incubator for 72 hours; and detected the expression level of the NEO gene expression with real-time quantitative PCR later; the EC50 (half-maximal effective concentration, concentration for 50% of maximal effect) values of test compounds were analyzed by GraphPad Prism software, respectively. In this paper, experiments were repeated twice and set the wells without compounds as negative control.

[2] = system: HCV GT1b replicon; assay: HCV replicon assay (Huh-7 cells stably transfected with HCV GT1b replicon; luciferase or NEO gene qPCR readout); type: cell-based; settings: Hepatitis C virus, HCV 1b genotype replicon, 72 hours
Method: as §1, §2, §3, §4, §5, §6

SMILES	EC50 [1] [pM]	EC50 [2] [pM]
COC(=O)N[C@H](C(=O)N1CCC[C@H]1C(=O)Nc1ccc(-c2ccc(-c3ccc4nc([C@@H]5CCCN5C(=O)[C@@H](NC(=O)OC)C(C)C)[nH]c4c3)c3c2CC2CCC32)cc1)C(C)C (stereo partly drawn) [Example 27]	1640	672
COC(=O)N[C@H](C(=O)N1CC2(CC2)C[C@H]1c1ncc(-c2ccc(-c3ccc(-c4ccc5nc([C@@H]6CC7(CC7)CN6C(=O)[C@@H](NC(=O)OC)C(C)C)[nH]c5c4)c4c3C3CCC3C4)cc2)[nH]1)C(C)C (stereo partly drawn) [Example 17]	62	78
COC(=O)N[C@H](C(=O)N1CCC[C@H]1c1ncc(-c2ccc(-c3ccc(-c4ccc5nc([C@@H]6CCCN6C(=O)[C@@H](NC(=O)OC)C(C)C)[nH]c5c4)c4c3C3CCC3C4)cc2)[nH]1)C(C)C (stereo partly drawn) [Example 4]	60	20
COC(=O)NC(C(=O)N1CCCC1c1ncc(-c2ccc(-c3ccc(-c4cnc(C5CCCN5C(=O)C(NC(=O)OC)C(C)C)[nH]4)c4c3C3CCC3C4)cc2)[nH]1)C(C)C (stereo not drawn) [Example 35]	548	7
COC(=O)N[C@H](C(=O)N1CC(C)=C[C@H]1c1ncc(-c2ccc(-c3ccc(-c4cnc([C@@H]5C=C(C)CN5C(=O)[C@@H](NC(=O)OC)C(C)C)[nH]4)c4c3C3CCC3C4)cc2)[nH]1)C(C)C (stereo partly drawn) [Example 21]	68	15
COC(=O)N[C@H](C(=O)N1CCC[C@H]1c1ncc(-c2ccc(-c3ccc(-c4ccc5nc([C@@H]6CCCN6C(=O)[C@@H](NC(=O)OC)C(C)C)[nH]c5c4)c4c3C3CCC3C4)nc2)[nH]1)C(C)C (stereo partly drawn) [Example 8]	66	28
COC(=O)N[C@@H](C)C(=O)N1CCCC1C1=Nc2cc(-c3ccc(-c4cnc([C@@H]5CCCN5C(=O)[C@H](C)NC(=O)OC)[nH]4)c4c3CC3CCC43)ccc2C2(COC2)N1 (stereo partly drawn) [Example 5]	1040	119
COC(=O)N[C@H](C(=O)N1CC(F)(F)C[C@H]1c1ncc(-c2ccc(-c3ccc(-c4ccc5[nH]c([C@@H]6CC(F)(F)CN6C(=O)[C@@H](NC(=O)OC)C(C)C)nc5c4)c4c3C3CCC3C4)cc2)[nH]1)C(C)C (stereo partly drawn) [Example 12]	80	27
COC(=O)N[C@H](C(=O)N1CCC[C@H]1c1cc(=O)c2cc(-c3ccc(-c4ccc(-c5cnc([C@@H]6CCCN6C(=O)[C@@H](NC(=O)OC)c6ccccc6)[nH]5)cc4)c4c3C3(C)CCC3C4)ccc2[nH]1)c1ccccc1 (stereo partly drawn) [Example 30]	211	92
COC(=O)NC(C(=O)N1CCCC1c1nc2ccc(-c3ccc(-c4ccc(-c5cnc(C6CC7CC7N6C(=O)C(NC(=O)OC)C(C)C)[nH]5)cc4)c4c3CC3CCC43)cc2[nH]1)C(C)C (stereo not drawn) [Example 37]	63	16
COC(=O)N[C@H](C(=O)N1C[C@@H](F)C[C@H]1c1ncc(-c2ccc(-c3ccc(-c4ccc5nc([C@@H]6C[C@H](F)CN6C(=O)[C@@H](NC(=O)OC)C(C)C)[nH]c5c4)c4c3C3CCC3C4)cc2)[nH]1)C(C)C (stereo partly drawn) [Example 9]	35	14
COC(=O)N[C@H](C(=O)N1CCC[C@H]1c1ncc(-c2ccc(-c3ccc(-c4ccc5nc([C@@H]6CCCN6C(=O)[C@@H](NC(=O)OC)C(C)C)[nH]c5c4)c4c3CC3CCC43)s2)[nH]1)C(C)C (stereo partly drawn) [Example 7]	93	53
COC(=O)N[C@H](C(=O)N1CCC[C@H]1c1ncc(-c2ccc(-c3ccc(-c4ccc5nc([C@@H]6CC7CC7N6C(=O)[C@@H](NC(=O)OC)C(C)C)[nH]c5c4)c4c3C3CCC3C4)cc2)[nH]1)C(C)C (stereo partly drawn) [Example 11]	51	33
COC(=O)N[C@H](C(=O)N1CCC[C@H]1c1ncc(-c2ccc(-c3ccc(-c4cnc([C@@H]5CCCN5C(=O)[C@@H](NC(=O)OC)C(C)C)[nH]4)c4c3C3CC(=O)CC3C4)cc2)[nH]1)C(C)C (stereo partly drawn) [Example 34]	75	22
COC(=O)N[C@H](C(=O)N1C[C@@H](C)C[C@H]1c1ncc(-c2ccc(-c3ccc(-c4ccc5nc([C@@H]6C[C@H](C)CN6C(=O)[C@@H](NC(=O)OC)C(C)C)[nH]c5c4)c4c3C3CCC3C4)cc2)[nH]1)C(C)C (stereo partly drawn) [Example 14]	3	1
COC(=O)N[C@H](C(=O)N1CCC[C@H]1c1ncc(-c2ccc(-c3ccc(-c4cnc([C@@H]5CCCN5C(=O)[C@@H](NC(=O)OC)C(C)C)[nH]4)c4c3C3CCC3C4)cc2)[nH]1)C(C)C (stereo partly drawn) [Example 1]	605	5
COC(=O)N[C@H](C(=O)N1CCC[C@H]1c1ncc(-c2ccc(-c3ccc(-c4ccc5nc([C@@H]6CCCN6C(=O)[C@@H](NC(=O)OC)C(C)C)[nH]c5c4)c4c3C3CCC3C4)c3ccccc23)[nH]1)C(C)C (stereo partly drawn) [Example 23]	449	50
COC(=O)N[C@H](C(=O)N1CCCC1c1nc2ccc(-c3ccc(-c4ccc5nc([C@@H]6CCCN6C(=O)[C@@H](NC(=O)OC)C(C)C)[nH]c5c4)c4c3C3C(=O)CCC3C4)cc2[nH]1)C(C)C (stereo partly drawn) [Example 32]	63	26
COC(=O)N[C@H](C(=O)N1C2CC2C[C@H]1c1ncc(-c2ccc(-c3ccc(-c4ccc5nc([C@@H]6CC7CC7N6C(=O)[C@@H](NC(=O)OC)C(C)C)[nH]c5c4)c4c3C3CCC3C4)cc2)[nH]1)C(C)C (stereo partly drawn) [Example 18]	83	30
CC(C)[C@H](NC(=O)OC(C)(C)C)C(=O)N1CCC[C@H]1c1ncc(-c2ccc(-c3ccc(-c4cnc([C@@H]5CCCN5C(=O)[C@@H](NC(=O)OC(C)(C)C)C(C)C)[nH]4)c4c3C3CCC3C4)cc2)[nH]1 (stereo partly drawn) [Example 10]	4330	927
COC(=O)N[C@H](C(=O)N1CCC[C@H]1c1nc2ccc(-c3ccc(-c4ccc(-c5cnc([C@@H]6C7CCC(C7)N6C(=O)[C@@H](NC(=O)OC)C(C)C)[nH]5)cc4)c4c3C3CCC3C4)cc2[nH]1)C(C)C (stereo partly drawn) [Example 2]	71	21
COC(=O)N[C@H](C(=O)N1CC(C)(C)C[C@H]1c1ncc(-c2ccc(-c3ccc(-c4ccc5nc([C@@H]6CC(C)(C)CN6C(=O)[C@@H](NC(=O)OC)C(C)C)[nH]c5c4)c4c3C3CCC3C4)cc2)[nH]1)C(C)C (stereo partly drawn) [Example 15]	381	105
COC(=O)N[C@H](C(=O)N1CCC[C@H]1c1ncc(-c2ccc(-c3sc(-c4ccc5nc([C@@H]6CCCN6C(=O)[C@@H](NC(=O)OC)C(C)C)[nH]c5c4)c4c3C3CCC3C4)cc2)[nH]1)C(C)C (stereo partly drawn) [Example 26]	832	48
COC(=O)N[C@H](C(=O)N1CCC[C@H]1c1ncc(-c2ccc(-c3ncc(-c4ccc5nc([C@@H]6CCCN6C(=O)[C@@H](NC(=O)OC)C(C)C)[nH]c5c4)c4c3C3CCC3C4)cc2)[nH]1)C(C)C (stereo partly drawn) [Example 25]	65	32
